Assays:
[1] = tested on: secretory pathway (Gluc secretion), 293T cells; test: Blocking of secretory pathway: Gluc activity in conditioned medium of drug-treated cells; format: cell-based, human; conditions: 24 h, 5 μg/ml BFA, 3 μg/ml monensin A, 10 μg/ml nocodazole, 5 μg/ml cytochalasin B
Experimental: Cells were treated for 24 h with different drugs which interfere with the secretory pathway. […] Scale bar, 10 μm. Luciferase activity. […] For Fluc detection, 450 μM Beetle D-luciferin (Molecular Imaging Products, Ann Arbor, Mich.) was added directly to the viable cells, in a 96 well plate and measured as above. The signal was measured for 10 sec and integrated over 2 sec in both cases. Blocking of secretory pathway.

[2] = tested on: spliced XBP-1 mRNA, 293T cells; test: Real-time qRT-PCR for spliced XBP-1 mRNA; format: cell-based, human
Experimental: (§1) Fold induction is calculated with respect to the control non-infected/non-treated cells. […] Blot is also probed with Gluc antibody as well as alpha-tubulin antibody for equal loading. […] The mean±S.E.M. is presented on the graphs (n=3), with *p<0.01 as compared to the non-treated cells and as calculated by the student's t-Test. NS=not significant
ER stress: total RNA isolation, reverse transcription and real-time qPCR. 293T cells were plated at 1×10^6 cells/mL in a 12-well plate. Cells were treated with different concentrations of DTT (Sigma) for 4 h. Total RNA was isolated using the RNeasy mini kit (Quiagen, Valencia, Calif.) and concentration was determined by measuring the OD260 using a spectrophotometer (Bio-Rad, Hercules, Calif.). Reverse transcription was performed on 200 ng RNA (in 10 μl) at 37° C. for 60 min using an Omniscript reverse transcription kit (Quiagen). Two μL of each cDNA sample were used for real-time PCR. Biological triplicates were measured twice. The following primers were used: Forward 5′-[…]-3′ (SEQ ID NO: 10) and Reverse 5′-[…]-3′ (SEQ ID NO: 11). These primers were designed to span a 26 bp intron in the unspliced XBP1 mRNA [12]. […] The fold increase was calculated based on Ct values of treated cells relative to control non-infected and non-treated cells normalized to the values for GAPDH endogenous control.

[3] = tested on: ER stress (Gluc secretion), 293T cells; test: Real-time monitoring of ER stress with Gluc (Gluc activity in conditioned medium); format: cell-based, human
Experimental: Fold induction is calculated with respect to the control non-infected/non-treated cells. […] The mean±S.E.M. is presented on the graphs (n=3), with *p<0.01 as compared to the non-treated cells and as calculated by the student's t-Test. NS=not significant
Gaussia luciferase for monitoring of ER stress in real-time. Splicing of the XBP-1 mRNA to sXBP1 and expression of BiP protein are generally used as biomarkers for ER stress.

[4] = tested on: unfolded protein response (GRP78); test: Immunoblotting for GRP78, unfolded protein response (FIG. 12); format: cell-based; conditions: cells treated with tunicamycin
Experimental: Immunobloting for GRP76 of protein lysates from cells not expressing Gluc in the absence (untreated) or presence of tunicamycin, an agent which upregulates the UPR, compared with untreated cells expressing the Gluc-YFP conjugate protein.
To assess the effect of Gluc expression on cell physiology and to ask if Gluc expression triggers an ER stress response and/or induces the unfolded protein response (UPR), cells were treated with tunicamycin, an agent which upregulates the UPR in the presence or absence of Gluc expression.

[5] = tested on: BiP, 293T cells; test: Western blot for BiP; format: cell-based, human; conditions: DTT 0.03-2 mM, 24 h, dose dependent
Experimental: as §1
Western blot. Total cell lysates were prepared in lysis buffer containing 150 mM NaCl, 50 mM TRIS, pH 8.0, 1% NP-40, 0.5% deoxycholate, 0.1% SDS, and protease inhibitors (PI Complete; Boehringer Mannheim, Indianapolis, Ind.). Forty μg protein were electrophoresed in 12.5% SDS-polyacrylamide gels, and transferred to nitrocellulose membranes (Bio-Rad). […] Membranes were then incubated with horseradish peroxidase (HRP) conjugated to secondary antibodies: sheep anti-mouse IgG-HRP (1:10,000) or donkey anti-rabbit IgG-HRP (1:10,000) (Amersham Pharmacia Biotech, Piscataway, N.J.). For protein detection we used SuperSignal West Pico Chemiluminescent Substrate™ (Pierce, Rockford, Ill.).

[6] = tested on: secretory pathway (Gluc secretion); test: Bioluminescence from media of Gluc expressing cells treated with secretory pathway inhibitors (FIG. 11); format: cell-based
Description: Nocodazone disrupts microtubule function and BrefeldinA disrupts golgi function.
This confirms Gluc is being secreted the secretory pathway.

[7] = tested on: secretory pathway (Gluc-YFP secretion); test: Gluc-YFP fusion: secretion and localization after BFA or nocodazole; format: cell-based, human; conditions: for secretion of Gluc-YFP luciferase activity: cells expressing Gluc-YFP, conditioned medium 24 h after treatment
Experimental: Blocking of secretory pathway. […] Forty-eight h post-infection, cells were treated with either 5 μg/ml BFA, 3 μg/ml monensin A (MonA), 10 μg/ml nocodazole (Noc) or 5 μg/ml cytochalasin B (CytB) all obtained from Sigma.

Compound	decrease of Gluc secretion into the conditioned medium [1]	bioluminescence from the media compared to untreated cells [6]	secretion of Gluc-YFP luciferase activity [7]	other results
C=C1[C@@H](C)[C@H]2[C@H](Cc3ccccc3)NC(=O)[C@]23OC(=O)/C=C/[C@H](O)CCC[C@@H](C)C/C=C/[C@H]3[C@@H]1O [cytochalasin B]	~30%			
tunicamycin				increase in spliced XBP-1 message ([2]; tunicamycin 3 μg/ml for 4 h): 9 fold; decrease in Gluc secretion ([3]; tunicamycin 3 μg/ml for 4 h): over 90%; expression of GRP78 [4]: detected
O[C@H](CS)[C@H](O)CS (racemic) [DTT, dithiothreitol]				extent of XBP-1 mRNA splicing ([2]; DTT 0.03-2 mM, 4 h, dose dependent): increased; Gluc secretion in the conditioned medium over time ([3]; 1 mM DTT, real-time monitoring, started to recover after 4 h, normal level after 24 h): complete inhibition of secretion for the first 3 h; secretion of Gluc ([3]; DTT 0.03-2 mM, 4 h): decrease; amount of BiP [5]: increased
CC[C@@]1([C@@H]2O[C@@H]([C@H]3O[C@@](O)(CO)[C@H](C)C[C@@H]3C)C[C@@H]2C)CC[C@H]([C@]2(C)CC[C@]3(C[C@H](O)[C@@H](C)[C@@H]([C@@H](C)[C@@H](OC)[C@H](C)C(=O)O)O3)O2)O1 [monensin A]	~65%			
C[C@H]1CCC/C=C/[C@@H]2C[C@H](O)C[C@H]2[C@H](O)/C=C/C(=O)O1 [BFA, brefeldinA]	about 90%	reduced	blocked to the same extent as for Gluc	localization of Gluc-YFP fusion protein ([7]; real-time confocal microscopy on live cells): trapped in the ER
COC(=O)Nc1nc2ccc(C(=O)c3cccs3)cc2[nH]1 [nocodazole]	~75%	reduced	blocked to the same extent as for Gluc	

From patent publication US20100035287A1, “Secreted Luciferase Fluorescent Protein Conjugate Nucleic Acid Construct and Uses Thereof” (THE GENERAL HOSPITAL CORPORATION, priority 2006, published 2010)
